Consider 12 molecules from US7807678B2, “Peptidomimetics of biologically active metallopeptides” (Palatin Technologies, Inc., priority 2001, dated 2010).

Assay [1] concerns the target MC3-R (Homo sapiens, UniProt P41968). In words: Competitive inhibition binding assay, 125I-NDP-α-MSH, MC3-R. The following applies: for Inhibition at 1 μM MC3-R: 1 μM compound, inhibition of 125I-NDP-α-MSH binding, mean of triplicates, results less than 0% reported as 0%. On the set-up: expressed in transfected cells. As to the method: (§1) The competitive inhibition binding assay was conducted using membranes prepared from hMC3-R, hMC4-R, hMC5-R, and B-16 mouse melanoma cells (containing MC1-R) using 0.4 nM ^125I-NDP-α-MSH (New England Nuclear, Boston, Mass., USA) in 50 mM HEPES buffer containing 1 mM MgCl2, 2 mM CaCl2, and 5 mM KCl, at pH 7.2. The assay tube also contained a chosen concentration of the test peptidomimetic of this invention, generally 1 μM, for determining its efficacy in inhibiting the binding of ^125I-NDP-α-MSH to its receptor.
(§2) Incubation was for 90 minutes at room temperature, after which the assay mixture was filtered and the membranes washed three times with ice cold buffer. The filter was dried and counted in a gamma counter for remaining radioactivity bound to the membranes. 100% specific binding was defined as the difference in radioactivity (cpm) bound to cell membranes in the absence and presence of 1 μM α-MSH. […] Each assay was conducted in triplicate and the actual mean values are described.

Assay [2] deals with MC5-R (Homo sapiens, UniProt P33032). Kind of assay: Competitive inhibition binding assay, 125I-NDP-α-MSH, MC5-R. On the set-up: expressed in transfected cells. The following applies: for Inhibition at 1 μM MC5-R: 1 μM compound, inhibition of 125I-NDP-α-MSH binding, mean of triplicates, results less than 0% reported as 0%. On the procedure:
as §1, §2

The target of assay [3] is T1, MC1-R (B-16 mouse melanoma cells) (Mus musculus, UniProt Q01727).
T1 construct: B-16 mouse melanoma cells (containing MC1-R); endogenous in cells; host or cells: B-16 mouse melanoma cells
T1 sequence (Q01727 whole entry): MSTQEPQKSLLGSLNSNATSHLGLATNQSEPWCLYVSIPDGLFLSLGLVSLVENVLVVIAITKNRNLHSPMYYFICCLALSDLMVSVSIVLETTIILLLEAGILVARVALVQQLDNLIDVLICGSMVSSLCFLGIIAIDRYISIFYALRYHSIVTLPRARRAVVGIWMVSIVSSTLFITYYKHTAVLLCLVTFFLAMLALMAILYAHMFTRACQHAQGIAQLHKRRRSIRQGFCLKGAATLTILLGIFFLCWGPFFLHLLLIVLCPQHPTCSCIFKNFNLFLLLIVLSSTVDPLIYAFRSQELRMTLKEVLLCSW
Kind of assay: Competitive inhibition binding assay, 125I-NDP-α-MSH, MC1-R. The note with it: for Inhibition at 1 μM MC1-R: 1 μM compound, inhibition of 125I-NDP-α-MSH binding, mean of triplicates, results less than 0% reported as 0%. On the procedure: as §1, §2

Assay [4] deals with MC4-R (Homo sapiens, UniProt P32245). In words: Competitive inhibition binding assay, 125I-NDP-α-MSH, MC4-R. On the set-up: expressed in transfected cells. The note with it: for Inhibition at 1 μM MC4-R: 1 μM compound, inhibition of 125I-NDP-α-MSH binding, mean of triplicates, results less than 0% reported as 0%. On the procedure: as §1, §2
Chain of MC4-R (P32245 whole entry): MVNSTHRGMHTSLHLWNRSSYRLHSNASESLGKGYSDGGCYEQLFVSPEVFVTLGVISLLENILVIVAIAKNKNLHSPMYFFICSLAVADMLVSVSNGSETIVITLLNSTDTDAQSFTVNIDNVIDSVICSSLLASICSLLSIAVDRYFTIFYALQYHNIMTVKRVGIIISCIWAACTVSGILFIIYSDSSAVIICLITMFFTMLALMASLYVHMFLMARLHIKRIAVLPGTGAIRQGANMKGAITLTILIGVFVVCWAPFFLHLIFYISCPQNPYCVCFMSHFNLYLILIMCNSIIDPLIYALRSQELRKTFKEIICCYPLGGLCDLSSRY

The term Inhibition denotes the relative decrease from the control value, in per cent. High values mean strong suppression, low ones little suppression. A word on the inhibition: it is the drop in the measured response relative to a control, in per cent.

Chain of MC3-R (P41968 whole entry): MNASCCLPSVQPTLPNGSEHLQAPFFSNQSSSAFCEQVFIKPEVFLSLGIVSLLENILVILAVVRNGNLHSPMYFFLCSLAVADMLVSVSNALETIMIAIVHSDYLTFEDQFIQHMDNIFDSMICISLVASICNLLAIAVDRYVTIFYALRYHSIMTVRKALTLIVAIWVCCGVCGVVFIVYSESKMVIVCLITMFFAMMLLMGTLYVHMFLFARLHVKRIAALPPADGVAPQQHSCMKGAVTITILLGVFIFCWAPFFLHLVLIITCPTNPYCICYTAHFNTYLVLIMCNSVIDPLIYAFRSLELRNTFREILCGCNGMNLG
Chain of MC5-R (P33032 whole entry): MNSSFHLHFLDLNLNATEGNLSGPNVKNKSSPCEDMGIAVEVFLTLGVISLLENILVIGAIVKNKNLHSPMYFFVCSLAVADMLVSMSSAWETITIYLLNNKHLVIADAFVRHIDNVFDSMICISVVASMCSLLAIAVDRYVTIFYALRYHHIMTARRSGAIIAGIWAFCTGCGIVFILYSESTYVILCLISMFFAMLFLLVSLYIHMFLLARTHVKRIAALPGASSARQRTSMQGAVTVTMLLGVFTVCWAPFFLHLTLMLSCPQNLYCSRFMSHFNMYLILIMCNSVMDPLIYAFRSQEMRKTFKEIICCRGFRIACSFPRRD

As to `NCCCNC(=O)[C@@H]1C[C@@H](OCc2ccccc2)CN1C(=O)[C@@H](Cc1ccccc1)NC(=O)[C@H](Cc1cnc[nH]1)NC(=O)CC1CCCCC1` [Example 142], the “Inhibition at 1 μM MC3-R” value in assay [1] was determined as 3%. In addition, the “Inhibition at 1 μM MC5-R” value in assay [2] worked out at 12%. The “Inhibition at 1 μM MC1-R” value in assay [3] was determined as 85%. Further, the “Inhibition at 1 μM MC4-R” value in assay [4] is reported as 0%.
Turning to `CCCC(CCC)C(=O)N[C@@H](Cc1cnc[nH]1)C(=O)N[C@H](Cc1ccccc1)C(=O)N1C[C@H](OCc2ccccc2)C[C@H]1C(=O)NCCCN` [Example 143], in assay [1], the “Inhibition at 1 μM MC3-R” value is 0%. In addition, the “Inhibition at 1 μM MC5-R” value in assay [2] came to 7%. For the same molecule, the “Inhibition at 1 μM MC1-R” value in assay [3] was determined as 73%. In addition, the “Inhibition at 1 μM MC4-R” value in assay [4] was 0%.
In the case of `N=C(N)NCCCC1C(=O)N(CCc2c[nH]c3ccccc23)CCN1C(=O)C(Cc1ccccc1Cl)NC(=O)C1CCC(c2ccccc2)N1` (centres unmarked) [Example 21], in assay [1], the “Inhibition at 1 μM MC3-R” value amounted to 22%. Moreover, the “Inhibition at 1 μM MC5-R” value in assay [2] is recorded as 19%. Also, in assay [3], the “Inhibition at 1 μM MC1-R” value is 62%. Besides, the “Inhibition at 1 μM MC4-R” value in assay [4] is recorded as 83%.
For the molecule `Cc1ccc(CCN2CCN(C(=O)[C@H](N)Cc3ccc(Cl)cc3)[C@@H](CCCNC(=N)N)C2=O)cc1` [Example 127], the “Inhibition at 1 μM MC3-R” value in assay [1] stood at 9%. Further, in assay [2], the “Inhibition at 1 μM MC5-R” value was 17%. In addition, in assay [3], the “Inhibition at 1 μM MC1-R” value amounted to 9%. Besides, the “Inhibition at 1 μM MC4-R” value in assay [4] stood at 49%.
Take `N=C(N)NCCC[C@H]1C(=O)N(CCc2c[nH]c3ccccc23)CCN1C(=O)[C@@H](Cc1ccccc1Cl)NC(=O)[C@@H](N)COCc1ccccc1` [Example 20]: the “Inhibition at 1 μM MC3-R” value in assay [1] was 40%. In assay [2], the “Inhibition at 1 μM MC5-R” value stood at 71%. The “Inhibition at 1 μM MC1-R” value in assay [3] was 87%. In addition, the “Inhibition at 1 μM MC4-R” value in assay [4] was determined as 98%.
For `NCCCC[C@H]1C(=O)N2C(CC[C@@H]2COc2ccc3ccccc3c2)N1C(=O)[C@@H](Cc1ccccc1Cl)NC(=O)[C@@H]1C[C@H](Oc2ccc3ccccc3c2)CN1` (some centres unmarked) [Example 91], in that order: 0%, 17%, 21% and 0%.
As to `NCC[C@H]1C(=O)N(CCc2ccc3ccccc3c2)CCN1C(=O)[C@H](N)Cc1ccc(Cl)cc1Cl` [Example 54], the “Inhibition at 1 μM MC3-R” value in assay [1] amounted to 11%. For the same molecule, the “Inhibition at 1 μM MC5-R” value in assay [2] is 23%. The “Inhibition at 1 μM MC1-R” value in assay [3] worked out at 28%. Also, in assay [4], the “Inhibition at 1 μM MC4-R” value was determined as 55%.
Turning to `CCCNC(=N)NCCCC1C(=O)N(CCc2ccc3ccccc3c2)CCN1C(=O)C(N)Cc1ccc(Cl)cc1Cl` (centres unmarked) [Example 74], the “Inhibition at 1 μM MC3-R” value in assay [1] worked out at 34%. Moreover, the “Inhibition at 1 μM MC5-R” value in assay [2] is listed as 26%. For the same molecule, in assay [3], the “Inhibition at 1 μM MC1-R” value is listed as 13%. Also, in assay [4], the “Inhibition at 1 μM MC4-R” value was determined as 88%.
The matching figures for `N[C@H](Cc1ccc(Cl)cc1Cl)C(=O)N1CCN(CCc2ccc3ccccc3c2)C(=O)[C@@H]1CCCCNC=O` [Example 64]: 0%, 6%, 8% and 30%.
With `N=C(N)NCCC[C@H]1C(=O)N(CCc2ccc3ccccc3c2)CCN1C(=O)COc1ccc(Cl)cc1Cl` [Example 77], the inhibition at 1 µM was 0% in assay [1], 20% in assay [2], 15% in assay [3] and 24% in assay [4].
In the case of `[2H]N[C@@H](Cc1cnc[nH]1)C(=O)N[C@@H](Cc1ccccc1)C(=O)N1C2CC[C@H](COc3ccc4ccccc4c3)N2C(=O)[C@@H]1CCCCN` (some centres unmarked) [Example 111], the inhibition at 1 µM in assay [1] amounted to 9%; in assay [3] it was 94%; in assay [4], 10%.
Take `NCCCC[C@H]1C(=O)N(CCc2ccccc2)CCN1C(=O)[C@@H](Cc1ccc(Cl)cc1)NC(=O)[C@@H](N)COCc1ccccc1` [Example 12]: the “Inhibition at 1 μM MC3-R” value in assay [1] turned out to be 39%. For the same molecule, the “Inhibition at 1 μM MC5-R” value in assay [2] is on record as 14%. Besides, the “Inhibition at 1 μM MC1-R” value in assay [3] is recorded as 46%. Further, in assay [4], the “Inhibition at 1 μM MC4-R” value is 40%.
